Measurements published in ChEMBL document CHEMBL1140355, “New HIV-1 replication inhibitors of the styryquinoline class bearing aroyl/acyl groups at the C-7 position: synthesis and biological activity” (Bioorg Med Chem Lett, 2005).

Tests used:
[1] = Toxicity towards CEM cells determined by standard MTT assay, expressed as concentration required for the survival of 50% cells; type: cell-based; settings: human, CEM cells (CCRF-CEM cell line); read-out: TC50 (the source's name)
[2] = test system: Human immunodeficiency virus 1; assay: Antiviral activity against human immunodeficiency virus type 1 by using MAGI assay; type: functional, organism-based; settings: Human immunodeficiency virus 1, MAGI
[3] = test system: Human immunodeficiency virus 1; assay: Antiviral activity against human immunodeficiency virus type 1 by using MAGI assay; NR = not reached; type: functional, organism-based

| IC50 [2] | IC50 [3] | Structure (SMILES) | CC50 [1] |
| --- | --- | --- | --- |
| 40 µM |  | O=C(O)c1ccc(C(=O)c2ccc3ccc(/C=C/c4ccc(O)c(O)c4)nc3c2O)cc1 | 80 µM |
|  | Not reached | O=C(c1ccc2ccc(/C=C/c3ccc(O)c(O)c3)nc2c1O)c1cccc2ccccc12 | 1 µM |
|  | Not reached | O=C(c1ccccc1)c1ccc2ccc(/C=C/c3ccc(O)c(O)c3)nc2c1O | 3 µM |
| 2 µM |  | O=C(c1ccc([N+](=O)[O-])cc1)c1ccc2ccc(/C=C/c3ccc(O)c(O)c3)nc2c1O | 60 µM |
| 60 µM |  | Cc1cc(C(=O)c2ccc3ccc(/C=C/c4ccc(O)c(O)c4)nc3c2O)ccc1[N+](=O)[O-] | 90 µM |
| 63 µM |  | O=C(O)c1cccc(C(=O)c2ccc3ccc(/C=C/c4ccc(O)c(O)c4)nc3c2O)c1 | > 100 µM |
| 2 µM |  | O=C(CCc1ccccc1)c1ccc2ccc(/C=C/c3ccc(O)c(O)c3)nc2c1O | 7 µM |
| 2 µM |  | O=C(c1cccnc1)c1ccc2ccc(/C=C/c3ccc(O)c(O)c3)nc2c1O | > 100 µM |
|  | Not reached | O=C(c1ccncc1)c1ccc2ccc(/C=C/c3ccc(O)c(O)c3)nc2c1O | 4 µM |
| 6 µM |  | O=C(c1ccc(O)cc1)c1ccc2ccc(/C=C/c3ccc(O)c(O)c3)nc2c1O | 87 µM |
| 4 µM |  | O=C(c1ccccc1[N+](=O)[O-])c1ccc2ccc(/C=C/c3ccc(O)c(O)c3)nc2c1O | 70 µM |
| 4 µM |  | O=C(c1ccc(F)c(F)c1)c1ccc2ccc(/C=C/c3ccc(O)c(O)c3)nc2c1O | 63 µM |
| 0.5 µM |  | O=C(c1cccc([N+](=O)[O-])c1)c1ccc2ccc(/C=C/c3ccc(O)c(O)c3)nc2c1O | 1.5 µM |
|  | Not reached | O=C(c1ccccc1O)c1ccc2ccc(/C=C/c3ccc(O)c(O)c3)nc2c1O | 1 µM |
| 5 µM |  | CCCCCCCCC(=O)c1ccc2ccc(/C=C/c3ccc(O)c(O)c3)nc2c1O | 10 µM |
|  |  | O=C(O)c1ccc2ccc(/C=C/c3ccc(O)c(O)c3)nc2c1O | > 100 µM |
| 35 µM |  | O=C(O)c1ccccc1C(=O)c1ccc2ccc(/C=C/c3ccc(O)c(O)c3)nc2c1O | > 100 µM |
|  | Not reached | O=C(c1ccccn1)c1ccc2ccc(/C=C/c3ccc(O)c(O)c3)nc2c1O | 15 µM |
